Measured values taken from paper PMC6710338, “Turning a Collagenesis-Inducing Peptide Into a Potent Antibacterial and Antibiofilm Agent Against Multidrug-Resistant Gram-Negative Bacteria” (Frontiers in Microbiology, 2019).
Peptide text beside a SMILES is read from it.

Legend:
[1] = system: preformed biofilms of MDR K. pneumoniae isolates; test: Biofilm metabolic activity (MTT); assay type: cell-based, Klebsiella pneumoniae; conditions: 20 × MIC, 24 h at 37°C, absorbance 570 nm
Method: The respective control biofilms were equally formed but in absence of the peptide (only TSB medium was used). Afterward, the bacterial metabolic activity of biofilms was quantified after adding 3-(4,5-dimethylthiazole-2-yl)-2,5-diphenyl tetrazolium bromide (MTT, 0.5 mg/mL – Sigma-Aldrich, St. Louis, MO, United States) for 3 h at 37°C in the dark. DMSO was used to dissolve the formazan crystals formed and the absorbance at 570 nm was measured. Two independent experiments were performed in four replicates.
The influence of the peptide on the metabolic activity of preformed biofilms of one P. aeruginosa (PA004) and three K. pneumoniae (KP004, KP007, and KP010) isolates was also assessed, through a standard MTT assay.

[2] = system: HFF-1 cells; assay type: cell-based, human; conditions: 72 h
Method: Immortalized human foreskin fibroblasts (HFF-1) were grown as a monolayer from passage number 8–16. For routine maintenance, HFF-1 cells were cultured in Dulbecco’s Modified Eagle Medium (DMEM, from Cell Lines Service) supplemented with 15% fetal bovine serum (FBS, from CLS) and 1% antibiotic/antimycotic solution (100 units/mL of penicillin, 100 μg/mL of streptomycin and 0.25 μg/mL of amphotericin B, from Sigma-Aldrich, St. Louis, MO, United States) at 37°C in an humidified atmosphere with 5% CO2. Cells were harvested by trypsinization [0.25% (w/v) trypsin-EDTA4Na, Sigma-Aldrich, St. Louis, MO, United States] twice a week.
The cytotoxicity of synthetic peptides to HFF-1 cells was evaluated using the standard MTT assay. Briefly, cells were seeded at a density of 8 × 10^4 cells/well onto 96-well plate and incubated at 37°C in a 5% CO2 atmosphere. Cells were allowed to grow for 48 h, and serially diluted peptide solutions (0.78–100 μM) were added to the wells. Then, cells were incubated for 72 h at 37°C, after which wells were washed once with phosphate buffered saline (PBS, Sigma-Aldrich, St. Louis, MO, United States), followed by addition of a 0.45 mg/mL MTT solution to each well. Crystals were allowed to form for 1.5 h. Reaction was stopped by rejecting the medium and addition of dimethylsulfoxide (DMSO, Sigma-Aldrich, St. Louis, MO, United States). Absorbance was read at 570 nm (Biotek PowerWave XS).
At the end of the cytotoxicity assays, the number of viable cells was never below that of initially plated cells. As such, data are represented as peptide concentrations causing 50% growth inhibition (IC50) on HFF-1 cells, rather than as lethal dosis values. IC50 values thus obtained are also included in Table 2.

[3] = system: preformed biofilms of MDR K. pneumoniae isolates; test: Effect on 24 h preformed biofilms (OD600 of planktonic phase); assay type: cell-based, Klebsiella pneumoniae; conditions: 20 × MIC, vs non-treated biofilm
Method: The efficacy of peptide 3.1-PP4 on 24 h preformed biofilms of PA002, PA004, KP004, KP007, and KP010 was also evaluated ([Gomes et al., 2014]). Briefly, biofilms were grown in TSB from a starting inoculum of 1 × 10^6 CFU/mL in 96-well microtiter plates. […] The optical density at 600 nm (OD600) was measured at time 0 and after incubation for 24 h at 37°C. The reduction in the biofilm proliferation was calculated in comparison to the respective non-treated biofilms. Two independent experiments were performed in triplicate.
In the case of control biofilms, the second 24 h growth period occurred in the absence of the peptide. Based on the apparent higher efficiency of peptide 3.1-PP4 to inhibit the formation of K. pneumoniae than P. aeruginosa biofilms, only two MDR isolates of the latter were included in this assay, whereas three MDR K. pneumoniae were tested. Optical density of the planktonic phase, as a measure of biofilm proliferation, was reduced in all peptide-treated biofilms, ranging from 3 to 21% reduction on P. aeruginosa isolates, and from 34 to 56% reduction on K. pneumoniae isolates (Table 4).

[4] = system: HFF-1 cells; test: Collagen production, Picrosirius Red staining; assay type: cell-based, human; conditions: HFF-1, 72 h incubation, Sirius Red, absorbance 540 nm; concentrations representative of the MIC values; compared with C16-PP4
Method: Collagen production was assessed as described by [Remoué et al. (2013)]. Briefly, HFF-1 cells were seeded and incubated as described previously for the cytotoxicity assay. After the 72 h incubation with peptides, cells were washed with PBS and the Sirius Red dye in picric acid solution (Sigma-Aldrich, St. Louis, MO, United States) was applied to each well. Cells were incubated at 25°C for 1 h under orbital shaking. Dye was then rejected, and cells were washed twice with absolute ethanol (AGA). Once the wells were dry, 1 M aqueous NaOH (Sigma-Aldrich, St. Louis, MO, United States) was added, and absorbance read at 540 nm (Biotek PowerWave XS).
The CBP-AMP conjugates herein addressed include a collagenesis-inducing motif, the amino acid sequence KTTKS whose N-palmitoylated derivative is the well-known “Palmitoyl pentapeptide-4” (C16-PP4) that emerged in 2000 under the commercial name Matrixyl as an active ingredient in skin rejuvenating cosmetics. […] To this end, collagen produced by HFF-1 human fibroblasts was determined by the previously validated Picrosirius Red Staining Protocol ([Remoué et al., 2013]), taking C16-PP4 as reference CBP. […] Results are presented in Figure 3, and expressed as the ratio between collagen produced and the number of viable cells, as the test peptides had different cytotoxicity against the HFF-1 cell line. […]

[5] = isolate KP004, 24 h preformed biofilm
[6] = isolate KP007, 24 h preformed biofilm
[7] = isolate KP010, 24 h preformed biofilm

## CC(C)C[C@H](NC(=O)[C@H](Cc1c[nH]c2ccccc12)NC(=O)[C@H](CCCCN)NC(=O)[C@H](CC(C)C)NC(=O)[C@H](CC(C)C)NC(=O)[C@H](CCCCN)NC(=O)[C@@H](N)CCCCN)C(=O)N[C@@H](CC(C)C)C(=O)N[C@@H](CCCCN)C(=O)N[C@@H](CC(C)C)C(=O)N[C@@H](CC(C)C)C(=O)N[C@@H](CCCCN)C(=O)N[C@H](C(=O)N[C@H](C(=O)N[C@@H](CCCCN)C(=O)N[C@@H](CO)C(N)=O)[C@@H](C)O)[C@@H](C)O [Peptide 3.1-PP4] (H-KKLLKWLLKLLKTTKS-NH2; N-terminus assumed)
[1]; [5]
  % reduction of metabolic activity in peptide-treated biofilms: 79%
[1]; [6]
  % reduction of metabolic activity in peptide-treated biofilms: 40%
[1]; [7]
  % reduction of metabolic activity in peptide-treated biofilms: 77%
[2]
  IC50: 69 ± 5 µM
[3]; [5]
  % reduction in biofilm proliferation upon treatment: 56%
[3]; [6]
  % reduction in biofilm proliferation upon treatment: 34%
[3]; [7]
  % reduction in biofilm proliferation upon treatment: 49%
[4]
  collagenesis-inducing behavior (collagen produced / number of viable cells): not statistically different from that of Matrixyl (C16-PP4)
